Measured values as given in patent publication US11787847B2, “Method of identifying malodor modulating compounds” (FIRMENICH SA, priority 2017, dated 2023).

Columns and labels:
Assay in all cases: cell-based dose-response, cAMP increase by HTRF, HEK293T cells (endogenous RTP1 activated) co-transfected with human Golf, Lucy-FLAG-Rho tagged receptor
[1] = target: T1, mouse receptor Olfr1193 (Mus musculus, UniProt A2AV13)
T1 construct: cAMP HTRF
T1 sequence (A2AV13 1-318): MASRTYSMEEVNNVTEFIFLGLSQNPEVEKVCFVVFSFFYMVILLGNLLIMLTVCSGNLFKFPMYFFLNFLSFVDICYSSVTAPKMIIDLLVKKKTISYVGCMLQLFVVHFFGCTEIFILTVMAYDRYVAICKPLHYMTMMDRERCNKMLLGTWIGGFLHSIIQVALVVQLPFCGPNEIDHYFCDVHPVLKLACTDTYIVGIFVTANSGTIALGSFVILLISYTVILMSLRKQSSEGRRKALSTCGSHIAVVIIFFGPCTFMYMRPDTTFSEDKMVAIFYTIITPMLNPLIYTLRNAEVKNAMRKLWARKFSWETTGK
Protocol: (§1) Functional dose-response experiments were performed to evaluate the level of DMTS activity of the modified cell line expressing individual putative DMTS receptors. Using a cell-based assay, mouse receptor Olfr1193, Olfr1093, Olfr1097, Olrf166, Olfr169, Olfr738 and Olfr742, and human receptor OR4S2 and OR52N5 were tested in an HEK293T cell line wherein the endogenous RTP1 gene has been activated and the odorant receptor chaperone protein was expressed (described in WO2016/201153). The mouse receptor genes were tagged with a Lucy-FLAG®-Rho tag combination and the human receptors were tagged with a Rho-FLAG® tag combination resulting in a tag:receptor fusion protein for the cell based assay. Receptor genes were co-transfected with the canonical olfactory human G-protein alpha subunit Golf gene and were exposed to increasing concentrations of the malodor odorant. Co-expression of the human Golf activates the Gs transduction pathway that leads to an internal cAMP increase upon binding to the appropriate ligand. Odorant-induced activity was detected by measuring the cAMP increase in the cytosol using an Homogeneous Time Resolved Fluorescence (HTRF) based kit (CisBio, cAMP dynamic 2 kit, cat. 62AM4PEJ). […] The activity levels are reported by the potency of the DMTS induced-response for each receptor as a measure of the EC50 value (the effective concentration at which the receptor responds at its half-maximal activation efficacy level for a given compound).
(§2) Functional dose-response experiments were performed to confirm the DMTS activity on the DMTS receptors identified in Example 2 and to further characterize their response to DMDS. Using the same cell-based assay described in Example 2, mouse receptors Olfr1193, Olfr1093, Olfr1097, Olfr166, Olfr169, Olfr738, Olfr742 and of human odorant receptor OR4S2 were tested with increasing concentration of DMTS, DMDS or butyric acid (control). […] A weak response for OR4S2 and Olfr169 to butyric acid was visible but was too weak to consider butyric acid as a representative ligand for these receptors. The activity levels are reported by the potency of DMTS or DMDS induced-response for each receptor as a measure of the EC50 value, EC50DMTS and EC50DMDS respectively. […] Competitive antagonists at the malodor binding site of these receptors have the potential to reduce the unpleasant perception of both DMTS and DMDS.

[2] = target: T2, mouse receptor Olfr742 (Mus musculus, UniProt A2RTP5)
T2 construct: cAMP HTRF
T2 sequence (A2RTP5 1-311): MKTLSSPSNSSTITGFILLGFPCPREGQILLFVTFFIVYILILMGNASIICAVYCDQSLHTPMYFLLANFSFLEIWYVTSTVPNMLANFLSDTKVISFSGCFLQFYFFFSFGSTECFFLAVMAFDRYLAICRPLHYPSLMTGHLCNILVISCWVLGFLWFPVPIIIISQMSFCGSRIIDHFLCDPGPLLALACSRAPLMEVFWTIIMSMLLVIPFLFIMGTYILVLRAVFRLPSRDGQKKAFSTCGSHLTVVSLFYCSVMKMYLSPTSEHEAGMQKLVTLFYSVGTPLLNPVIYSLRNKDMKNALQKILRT
Protocol: as §1, §2

[3] = target: T3, mouse receptor Olfr166 (Mus musculus, UniProt Q0VEL6)
T3 construct: cAMP HTRF
T3 sequence (Q0VEL6 1-312): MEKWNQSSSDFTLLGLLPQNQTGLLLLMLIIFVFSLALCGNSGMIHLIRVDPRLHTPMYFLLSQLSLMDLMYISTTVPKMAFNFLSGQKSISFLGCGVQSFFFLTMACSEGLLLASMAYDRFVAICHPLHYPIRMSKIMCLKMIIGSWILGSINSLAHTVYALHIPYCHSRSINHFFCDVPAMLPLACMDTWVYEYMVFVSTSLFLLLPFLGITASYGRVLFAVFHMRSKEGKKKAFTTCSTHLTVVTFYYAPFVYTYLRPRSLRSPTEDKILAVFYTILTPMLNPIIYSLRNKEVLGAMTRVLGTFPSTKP
Protocol: as §1, §2

[4] = target: T4, mouse receptor Olfr738 (Mus musculus, UniProt L7N1X7)
T4 construct: cAMP HTRF
T4 sequence (L7N1X7 1-311): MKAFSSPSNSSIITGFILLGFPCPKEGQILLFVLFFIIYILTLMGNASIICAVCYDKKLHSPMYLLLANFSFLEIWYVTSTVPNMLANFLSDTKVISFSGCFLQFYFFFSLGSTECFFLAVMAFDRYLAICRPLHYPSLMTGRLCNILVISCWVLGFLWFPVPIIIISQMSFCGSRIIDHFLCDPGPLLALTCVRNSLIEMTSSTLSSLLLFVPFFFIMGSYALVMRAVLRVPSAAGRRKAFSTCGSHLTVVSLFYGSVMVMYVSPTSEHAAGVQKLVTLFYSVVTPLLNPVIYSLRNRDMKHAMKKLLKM
Protocol: as §1, §2

[5] = target: T5, mouse receptor Olfr1093 (Mus musculus, UniProt B2RR12)
T5 construct: cAMP HTRF
T5 sequence (B2RR12 1-322): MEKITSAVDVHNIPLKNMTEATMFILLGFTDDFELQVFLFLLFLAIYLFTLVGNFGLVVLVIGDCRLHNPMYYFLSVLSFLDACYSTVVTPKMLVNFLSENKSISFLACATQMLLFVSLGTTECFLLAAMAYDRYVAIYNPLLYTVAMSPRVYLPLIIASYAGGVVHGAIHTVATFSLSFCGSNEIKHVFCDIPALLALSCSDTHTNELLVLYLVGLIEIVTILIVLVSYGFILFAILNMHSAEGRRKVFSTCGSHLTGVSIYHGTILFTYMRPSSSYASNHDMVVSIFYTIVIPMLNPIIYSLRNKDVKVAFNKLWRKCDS
Protocol: as §1, §2

**Q.** For `CSSSC` [DMTS, dimethyl trisulfide], which EC50 ([1]; FIG. 2, Example 2, SEQ ID NO: 2) is on record?
**A.** 55 µM

**Q.** What about the EC50 ([1]; FIG. 5, Example 5, SEQ ID NO: 2) of the same molecule?
**A.** 16 µM

**Q.** And the EC50 ([2]; FIG. 2, Example 2, SEQ ID NO: 14)?
**A.** 7 µM

**Q.** What about the EC50 ([2]; FIG. 5, Example 5, SEQ ID NO: 14) of the same molecule?
**A.** 16 µM

**Q.** What about the EC50 ([3]; FIG. 2, Example 2, SEQ ID NO: 8) of the same molecule?
**A.** 5 µM

**Q.** And the EC50 ([3]; FIG. 5, Example 5, SEQ ID NO: 8)?
**A.** 11 µM

**Q.** And the EC50 ([4]; FIG. 2, Example 2, SEQ ID NO: 12)?
**A.** 369 µM

**Q.** And the EC50 ([4]; FIG. 5, Example 5, SEQ ID NO: 12)?
**A.** 190 µM

**Q.** And the EC50 ([5]; FIG. 2, Example 2, SEQ ID NO: 4)?
**A.** 46 µM

**Q.** And the EC50 ([5]; FIG. 5, Example 5, SEQ ID NO: 4)?
**A.** 62 µM
